Assay results from ChEMBL document CHEMBL1201862, “PubChem BioAssay data set” (2004).
Active and inactive are the calls of the source.

Experiments:
[1] = A549 cell cytotoxicity, dose response, cytotoxicity control, plate reader, cherry-pick, antagonist series (AID 743412); assay type: functional, cell-based
[2] = MC4R antagonists, dose response, counter-screen for LGR2 antagonist project, cell-based, plate reader, cherry pick (AID 743444); assay type: functional;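 also: transfected HEK 293 cells stimulated with alpha-MSH peptide; potency of inhibitors of the alpha-MSH evoked signal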
[3] = target: Ras and Rab interactor 1/Tyrosine-protein kinase ABL1 (Homo sapiens, UniProt P00519+Q13671); assay type: functional;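 also: biochemical TR-FRET dose-response test measuring inhibition of binding between Rin1 and Abl proteins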
[4] = HepG2 cell cytotoxicity, dose response, cytotoxicity control, plate reader, cherry-pick, antagonist series (AID 743416); assay type: functional, cell-based
[5] = LGR2 antagonists, dose response, cell-based, HEK293, CRE-luciferase reporter, cherry pick, set 2 (AID 743343); assay type: functional;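 also: transfected cells were stimulated with diluted bursicon conditioned medium after compound addition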
[6] = HEK293 cell cytotoxicity, dose response, cytotoxicity control, plate reader, cherry-picked samples (AID 743446); assay type: functional, cell-based
[7] = target: T1, Sentrin-specific protease 8 (Homo sapiens, UniProt Q96LD8); assay type: functional
T1 sequence (Q96LD8 whole entry): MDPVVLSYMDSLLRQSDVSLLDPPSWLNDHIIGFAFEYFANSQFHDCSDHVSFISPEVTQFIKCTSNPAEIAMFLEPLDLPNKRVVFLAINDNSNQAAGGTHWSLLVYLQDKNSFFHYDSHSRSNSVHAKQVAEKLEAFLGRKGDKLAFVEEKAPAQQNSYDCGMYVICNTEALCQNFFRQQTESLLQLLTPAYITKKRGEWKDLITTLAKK

[8] = target: Tyrosyl-DNA phosphodiesterase 2 (Homo sapiens, UniProt O95551); test: human TDP2 enzyme inhibitors, dose response, biochemical, epi absorbance, IC50 (AID 743297)
[9] = target: T1, Sentrin-specific protease 8; assay type: functional; remark: listed apart in the source
Protein RecA = target: T2, Protein RecA (Mycobacterium tuberculosis, UniProt P9WHJ3); test: Fluorescence Cell-Free Homogeneous Dose Retest to Identify Inhibitors of RecA-Intein Splicing Activity. [Related pubchem assays (depositor defined):AID2097, AID2223, AID489010, AID492950]; assay type: functional
T2 sequence (P9WHJ3 whole entry): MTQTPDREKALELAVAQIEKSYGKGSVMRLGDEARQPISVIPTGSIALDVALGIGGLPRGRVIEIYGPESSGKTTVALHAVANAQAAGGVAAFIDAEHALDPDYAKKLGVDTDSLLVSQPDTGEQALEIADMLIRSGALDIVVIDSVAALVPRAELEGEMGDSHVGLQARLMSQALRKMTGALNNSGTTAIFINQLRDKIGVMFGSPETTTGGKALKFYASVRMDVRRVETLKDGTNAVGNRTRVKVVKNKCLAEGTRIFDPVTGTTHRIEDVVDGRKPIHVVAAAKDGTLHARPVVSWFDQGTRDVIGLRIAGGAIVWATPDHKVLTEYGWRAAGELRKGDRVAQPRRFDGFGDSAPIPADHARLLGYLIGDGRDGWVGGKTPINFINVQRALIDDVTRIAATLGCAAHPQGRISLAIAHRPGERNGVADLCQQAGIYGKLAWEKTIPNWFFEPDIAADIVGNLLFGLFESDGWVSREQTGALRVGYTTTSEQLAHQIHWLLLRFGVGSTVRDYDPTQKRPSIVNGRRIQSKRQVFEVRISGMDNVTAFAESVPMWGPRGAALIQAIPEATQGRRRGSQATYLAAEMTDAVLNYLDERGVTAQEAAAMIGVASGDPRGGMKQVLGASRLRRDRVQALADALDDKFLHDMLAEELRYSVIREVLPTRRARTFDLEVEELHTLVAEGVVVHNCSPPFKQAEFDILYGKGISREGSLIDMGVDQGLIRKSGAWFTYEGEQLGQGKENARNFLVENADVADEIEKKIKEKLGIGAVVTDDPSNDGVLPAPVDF

[10] = target: T3, Replicative DNA helicase DnaB (Mycobacterium tuberculosis, UniProt P9WMR3); test: DnaB intein splicing inhibitors, dose response, biochemical, cell-free fluorescence (AID 449749); assay type: functional
T3 sequence (P9WMR3 whole entry): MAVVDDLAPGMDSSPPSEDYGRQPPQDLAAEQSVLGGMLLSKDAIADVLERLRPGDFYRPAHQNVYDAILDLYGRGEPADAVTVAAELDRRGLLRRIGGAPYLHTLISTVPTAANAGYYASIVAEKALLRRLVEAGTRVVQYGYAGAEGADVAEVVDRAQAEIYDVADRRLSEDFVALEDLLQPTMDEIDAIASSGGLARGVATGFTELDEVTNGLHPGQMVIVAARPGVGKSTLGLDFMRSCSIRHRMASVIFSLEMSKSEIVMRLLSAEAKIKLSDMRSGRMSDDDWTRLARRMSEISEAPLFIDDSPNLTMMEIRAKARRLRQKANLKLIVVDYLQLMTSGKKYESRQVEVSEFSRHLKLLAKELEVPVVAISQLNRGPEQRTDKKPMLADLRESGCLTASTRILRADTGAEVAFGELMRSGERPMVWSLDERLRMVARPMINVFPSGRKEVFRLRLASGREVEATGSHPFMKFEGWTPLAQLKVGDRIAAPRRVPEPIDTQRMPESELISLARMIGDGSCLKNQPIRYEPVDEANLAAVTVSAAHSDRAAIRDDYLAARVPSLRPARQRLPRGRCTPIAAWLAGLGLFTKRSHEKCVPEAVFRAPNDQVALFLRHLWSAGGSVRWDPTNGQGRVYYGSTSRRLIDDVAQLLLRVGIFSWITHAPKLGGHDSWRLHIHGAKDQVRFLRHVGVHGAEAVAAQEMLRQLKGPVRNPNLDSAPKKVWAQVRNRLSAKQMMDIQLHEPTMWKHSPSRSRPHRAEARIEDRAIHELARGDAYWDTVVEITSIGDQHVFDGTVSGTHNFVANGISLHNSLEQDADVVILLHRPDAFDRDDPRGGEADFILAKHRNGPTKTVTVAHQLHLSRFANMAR

[11] = target: T4, DNA repair and recombination protein RAD54-like (Homo sapiens, UniProt Q92698); test: inhibitors of human RAD54 branch migration, confirmation, biochemical, fluorescence, cherry-picked samples, dose series (AID 651657); assay type: functional
T4 sequence (Q92698 whole entry): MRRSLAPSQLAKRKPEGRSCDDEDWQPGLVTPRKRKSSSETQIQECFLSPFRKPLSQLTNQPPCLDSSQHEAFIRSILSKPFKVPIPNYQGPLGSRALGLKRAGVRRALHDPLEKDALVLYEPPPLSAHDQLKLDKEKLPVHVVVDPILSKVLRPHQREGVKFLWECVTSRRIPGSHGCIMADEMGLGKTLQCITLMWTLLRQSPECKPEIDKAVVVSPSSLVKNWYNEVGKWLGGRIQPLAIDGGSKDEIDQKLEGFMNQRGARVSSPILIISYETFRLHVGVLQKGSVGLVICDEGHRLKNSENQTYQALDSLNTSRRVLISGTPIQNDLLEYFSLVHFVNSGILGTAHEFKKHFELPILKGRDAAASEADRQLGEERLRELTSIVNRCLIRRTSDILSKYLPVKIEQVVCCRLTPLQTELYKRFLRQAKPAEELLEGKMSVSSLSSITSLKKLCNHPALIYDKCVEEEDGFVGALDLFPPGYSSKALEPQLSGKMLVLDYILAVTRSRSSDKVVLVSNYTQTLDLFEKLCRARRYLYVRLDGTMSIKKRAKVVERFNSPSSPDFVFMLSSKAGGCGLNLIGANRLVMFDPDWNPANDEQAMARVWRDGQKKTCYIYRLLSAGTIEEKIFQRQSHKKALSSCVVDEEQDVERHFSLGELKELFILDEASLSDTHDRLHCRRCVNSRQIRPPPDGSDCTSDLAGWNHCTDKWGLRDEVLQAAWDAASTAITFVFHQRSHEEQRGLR

[12] = target: Endoplasmic reticulum aminopeptidase 1 (Homo sapiens, UniProt Q9NZ08); test: ERAP1 aminopeptidase inhibitors, dose response, biochemical, cherry-pick, set 2, plate reader (AID 743314)
Major prion protein = Major prion protein (Homo sapiens, UniProt P04156); assay type: functional, cell-based
[13] = HepG2 cell cytotoxicity, dose response, cytotoxicity control, ATP luminescence, cherry-pick, activator set 2 (AID 1053143); assay type: functional, cell-based

Chain of Endoplasmic reticulum aminopeptidase 1 (Q9NZ08 whole entry): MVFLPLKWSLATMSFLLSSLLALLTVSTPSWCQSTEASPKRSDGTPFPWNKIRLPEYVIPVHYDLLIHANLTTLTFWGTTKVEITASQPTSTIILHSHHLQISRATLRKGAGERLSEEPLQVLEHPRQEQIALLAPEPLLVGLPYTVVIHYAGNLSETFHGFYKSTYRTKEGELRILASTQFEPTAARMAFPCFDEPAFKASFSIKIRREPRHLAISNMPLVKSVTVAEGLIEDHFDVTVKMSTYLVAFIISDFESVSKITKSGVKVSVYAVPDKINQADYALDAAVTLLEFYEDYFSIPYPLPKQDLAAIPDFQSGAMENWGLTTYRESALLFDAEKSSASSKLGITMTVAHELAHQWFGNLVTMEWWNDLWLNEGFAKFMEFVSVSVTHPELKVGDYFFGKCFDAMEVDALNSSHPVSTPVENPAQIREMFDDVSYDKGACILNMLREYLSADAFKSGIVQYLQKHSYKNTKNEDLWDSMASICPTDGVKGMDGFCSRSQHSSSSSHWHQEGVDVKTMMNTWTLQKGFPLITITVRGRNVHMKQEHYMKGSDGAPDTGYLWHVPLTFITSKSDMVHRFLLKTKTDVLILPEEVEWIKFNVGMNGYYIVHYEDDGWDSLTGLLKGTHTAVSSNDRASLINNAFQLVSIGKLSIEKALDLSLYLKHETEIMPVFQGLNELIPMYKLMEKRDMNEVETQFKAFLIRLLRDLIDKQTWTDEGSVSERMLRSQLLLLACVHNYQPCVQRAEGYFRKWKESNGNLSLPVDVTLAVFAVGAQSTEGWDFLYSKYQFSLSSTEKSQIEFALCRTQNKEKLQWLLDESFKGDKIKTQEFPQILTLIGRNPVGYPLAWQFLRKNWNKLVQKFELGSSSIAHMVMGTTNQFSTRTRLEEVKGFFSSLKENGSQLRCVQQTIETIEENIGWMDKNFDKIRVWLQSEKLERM
Chain of Ras and Rab interactor 1/Tyrosine-protein kinase ABL1 (P00519 whole entry): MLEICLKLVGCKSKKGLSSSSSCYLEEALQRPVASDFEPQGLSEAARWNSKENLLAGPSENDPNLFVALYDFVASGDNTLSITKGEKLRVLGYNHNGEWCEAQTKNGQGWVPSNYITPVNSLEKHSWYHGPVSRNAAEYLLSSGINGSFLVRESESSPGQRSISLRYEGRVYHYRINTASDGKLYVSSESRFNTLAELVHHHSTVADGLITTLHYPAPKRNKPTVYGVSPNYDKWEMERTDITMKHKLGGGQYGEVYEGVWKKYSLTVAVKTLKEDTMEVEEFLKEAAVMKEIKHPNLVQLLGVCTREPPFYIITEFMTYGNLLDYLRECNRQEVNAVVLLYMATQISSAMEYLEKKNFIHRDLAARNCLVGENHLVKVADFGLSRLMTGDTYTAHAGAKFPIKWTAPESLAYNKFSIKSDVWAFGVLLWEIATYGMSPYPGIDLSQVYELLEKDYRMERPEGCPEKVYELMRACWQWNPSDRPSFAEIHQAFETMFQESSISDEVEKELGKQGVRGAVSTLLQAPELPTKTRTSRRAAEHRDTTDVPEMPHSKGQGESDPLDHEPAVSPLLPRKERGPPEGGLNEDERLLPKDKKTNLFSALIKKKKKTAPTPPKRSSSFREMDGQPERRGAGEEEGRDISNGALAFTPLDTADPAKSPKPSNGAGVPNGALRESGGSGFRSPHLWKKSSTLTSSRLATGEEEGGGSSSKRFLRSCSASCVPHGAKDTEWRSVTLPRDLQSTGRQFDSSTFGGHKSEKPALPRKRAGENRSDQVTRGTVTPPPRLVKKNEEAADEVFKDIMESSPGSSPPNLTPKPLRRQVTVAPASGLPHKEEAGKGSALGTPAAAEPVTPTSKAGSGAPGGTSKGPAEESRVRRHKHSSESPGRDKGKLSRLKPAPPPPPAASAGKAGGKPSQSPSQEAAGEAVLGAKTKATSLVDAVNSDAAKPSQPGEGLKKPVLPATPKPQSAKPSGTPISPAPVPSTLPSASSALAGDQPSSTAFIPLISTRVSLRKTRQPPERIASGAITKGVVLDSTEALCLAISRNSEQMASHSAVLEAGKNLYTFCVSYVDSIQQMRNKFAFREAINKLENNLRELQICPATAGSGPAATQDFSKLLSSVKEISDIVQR
Chain of Ras and Rab interactor 1/Tyrosine-protein kinase ABL1 (Q13671 whole entry): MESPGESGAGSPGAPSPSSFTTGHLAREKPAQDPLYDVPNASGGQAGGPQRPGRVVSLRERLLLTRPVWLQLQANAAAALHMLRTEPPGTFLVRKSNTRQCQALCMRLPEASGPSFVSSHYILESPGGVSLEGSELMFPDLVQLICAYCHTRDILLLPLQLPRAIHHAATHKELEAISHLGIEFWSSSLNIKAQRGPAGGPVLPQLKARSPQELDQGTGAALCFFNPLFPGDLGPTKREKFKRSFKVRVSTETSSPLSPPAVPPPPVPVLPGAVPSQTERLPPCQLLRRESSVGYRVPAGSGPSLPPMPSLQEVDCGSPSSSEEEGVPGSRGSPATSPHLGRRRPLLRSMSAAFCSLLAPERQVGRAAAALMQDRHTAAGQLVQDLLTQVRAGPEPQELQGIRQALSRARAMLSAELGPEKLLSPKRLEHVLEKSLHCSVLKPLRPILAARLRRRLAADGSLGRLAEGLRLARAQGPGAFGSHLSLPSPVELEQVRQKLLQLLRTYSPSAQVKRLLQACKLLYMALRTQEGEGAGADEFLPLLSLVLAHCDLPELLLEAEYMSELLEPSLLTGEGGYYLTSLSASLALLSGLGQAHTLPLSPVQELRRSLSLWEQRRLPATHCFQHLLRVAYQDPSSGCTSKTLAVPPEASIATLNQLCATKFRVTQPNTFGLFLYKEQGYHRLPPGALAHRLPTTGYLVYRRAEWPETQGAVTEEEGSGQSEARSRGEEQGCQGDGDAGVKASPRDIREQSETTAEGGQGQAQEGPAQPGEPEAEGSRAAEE
Chain of Tyrosyl-DNA phosphodiesterase 2 (O95551 whole entry): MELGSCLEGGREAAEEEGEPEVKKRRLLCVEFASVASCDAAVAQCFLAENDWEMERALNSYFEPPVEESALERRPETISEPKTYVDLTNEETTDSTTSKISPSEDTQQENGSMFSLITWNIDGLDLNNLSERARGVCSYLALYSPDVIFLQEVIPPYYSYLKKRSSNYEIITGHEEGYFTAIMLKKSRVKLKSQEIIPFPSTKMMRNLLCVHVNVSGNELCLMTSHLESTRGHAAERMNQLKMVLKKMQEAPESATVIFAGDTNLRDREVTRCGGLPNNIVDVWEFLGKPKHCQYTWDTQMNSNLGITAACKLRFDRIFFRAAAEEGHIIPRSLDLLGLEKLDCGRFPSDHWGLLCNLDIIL

CCOC(=O)c1ccc(NC(=O)COc2ccccc2CNCCc2ccccc2)cc1
AC50 [1]: 10 µM (active)
AC50 [2]: 27.7 µM (active)
IC50 [3]: 25.9 µM (inactive)
AC50 [4]: 13.9 µM (active)
AC50 [5]: 17.4 µM (active)
AC50 [6]: 15.4 µM (active)

COC(=O)c1ccccc1-c1ccc(C(c2c(C)n[nH]c2O)c2c(C)n[nH]c2O)o1
IC50 [7]: 18.6 µM (active)
IC50 [8]: 51.2 µM (inactive)
IC50 [9]: 8.91 µM (active)
EC50 (Protein RecA): 0.214 µM (active)
AC50 [10]: 0.279 µM (active)

CN1CCCC1CCNc1ccc2c(=O)c3ccccc3oc2c1 (stereo unspecified)
AC50 [11]: 21.1 µM (active)
AC50 [12]: 4.52 µM (active)

CCOC(=O)C(CC)Sc1cc(C)nc2ccc(OC)cc12 (stereo unspecified)
IC50 (cells): > 138 µM (inactive)
IC50 (Major prion protein): 5.29 µM (active)

Cc1occc1-c1nnc(SC(C)C(=O)Nc2ccccc2F)o1 (stereo unspecified)
AC50 [13]: 19.3 µM (active)
